Reference: publication PMC9603521, “WYBQ-4: a New Bactericidal Agent against Methicillin-Resistant Staphylococcus aureus” (Microbiology Spectrum, 2022)
Where two headings read alike, the source gives them in different places.

What was measured:
MRSA USA300 [1] = test: Mouse lung infection model, survival; format: in vivo, mice; details: mouse pneumonia, USA300 2 × 10^8 CFU, 12-h intervals, within 72 h
Description: The animal experiments were performed using 6-week-old male C57BL/6J mice, and the mouse model of lung infection caused by MRSA USA300 was established as previously described ([43], [44]). For the survival rate, mice (10 per group) were infected with MRSA USA300 (2 × 10^8 CFU per mouse). After 2 h of infection, mice were given WYBQ-4 via subcutaneous injection and reinjected at 12-h intervals, whereas mice were treated with ceftaroline fosamil at the same doses and served as positive controls. Mice injected with only MRSA USA300 were used as a negative control. Survival of mice was recorded within 72 h, and survival rates were calculated.

MRSA USA300 [2] = test: TEM analysis of cell morphology / division defects; format: cell-based, Staphylococcus aureus; details: 4 μg/mL (1/2× MIC), 3 h
Description: MRSA USA300 was cultured overnight, diluted (1:100) into 20 mL of Trypticase soy broth (TSB) medium, and incubated at 30°C with shaking until the optical density at 600 nm (OD600) reached 0.3. […] Bacterial cells treated with 4 μg/mL ceftaroline fosamil (1/2 of their respective MIC) served as a control group. Untreated S. aureus served as a negative control. Bacteria were collected and washed in PBS and resuspended in 4% (vol/vol) glutaraldehyde fixation overnight. The fixed samples were further processed, and morphological changes in S. aureus were observed by TEM (JSM-7900F; JEOL, Japan).

MRSA USA300 [3] = test: Mouse lung infection model, bacterial load and histopathology; format: in vivo, mice; details: mouse pneumonia, USA300; after treatment
Description: The mice were challenged with 1 × 10^8 CFU of MRSA USA300 to assess bacterial load and pathological changes. The dose and manner of administration in mice were consistent with the survival experiments. In addition, the mice treated with ceftaroline fosamil at 75 and 37.5 mg/kg were used as control groups. At 48 h postinfection, mice were euthanized, and the left lungs were aseptically removed, weighed, and homogenized. Then, the lung tissues were homogenized and serially diluted for CFU counts. The right lungs were fixed with 10% formalin, embedded in paraffin, thin-sectioned, subjected to conventional hematoxylin and eosin (H&E) staining, and then observed using an optical microscope.

PBP2a [4] = details: cited from earlier work; for Kd: read-out: ks
PBP2a [5] = molecular target: PBP2a (Staphylococcus aureus, UniProt P07944); test: PBP2a acylation kinetics, nitrocefin competition assay; format: biochemical, MRSA
Description: Please refer to the supplemental material for the kinetic parameters of the interaction between WYBQ-4 and PBP2a and the determination of the rate of diacylation.
Supplementary Method. 1 Determination of the Kinetic Parameters for Interactions of […]
Determination of the kinetic parameters for interactions of WYBQ-4 with PBP2a The kinetic parameters of the interaction of WYBQ-4 with PBP2a were determined as previously described (1). The kinetics of the reaction between PBP2a of MRSA with WYBQ-4 was studied in homogeneous aqueous solution at 37℃ in 25 mM Hepes buffer, pH 7.0, containing 1 M NaCl and the inhibition of PBPs by β-lactams follows this kinetic scheme. […]
In this minimal scheme, E represents PBP2a, EI is the noncovalent preacylation complex, E-I is the covalent acyl-enzyme species, and P denotes the product of E-I hydrolysis and restoration of […]
The typical reactions of β-lactam could be monitored through competition with a chromophoric β-lactam, nitrocefin, or directly in certain cases by fluorescence intensity of protein. In this study, it is proposed to determine the secondary rate constants (k2/Ks) of WYBQ-4 by nitrocefin competition assay. The reaction was conducted in the above buffer, and the reaction system contained PBP2a (2.5 μM) and different concentrations of nitrocefin (20-120 μM). The reaction was carried out in a UV spectrophotometer (PERSEE T600, China) and the change in absorbance at 500 nm was […]
Apparent first-order rate constants for acylation by nitrocefin were determined by fitting the change in absorbance with time to eqn. (1):
A = A0 + ∆εn E0[(1 − exp (−kn∗ t)] + k0N0∆εn Ε0t (1) where A0 is the initial absorbance at 500 nm, ∆εn the change in molar absorption coefficient on nitrocefin hydrolysis (15900 M-1cm-1), E0 the initial enzyme concentration, N0 the initial nitrocefin concentration, kn* the (burst) pseudo-first-order rate constant for acylation of PBP2a by nitrocefin, and k0 the (line) second-order rate constant of a non-specific hydrolysis of nitrocefin in the presence of PBP2a. The second-order rate constants (kn) for acylation were calculated by fitting a plot of the apparent first-order rate constants (kn*) against the concentration of nitrocefin using a linear least-squares method.
Subsequently, nitrocefin (100 μM) was used as a reporter molecule to determine the apparent first-order rate constants for acylation of WYBQ-4 at different concentrations (0-500 μM) in competition assays. In this case, the change in absorbance at 500 nm with time was fitted to eqn.
Α = A + ∆ε E (k∗ ∕ (k∗ + k∗)(1 − exp (−(k∗ + k∗)t)) + k N ∆ε Ε t (2) […]

PBP2a [6] = details: as reported; cited from earlier work
MRSA USA300 [7] = test: Mouse systemic infection model; format: in vivo, mice; details: USA300 5 × 10^7 CFU, 150 mg/kg, tail intravenous injection at 0 and 3 h, 7-day
Description: The S. aureus-induced systemic infection model of mice (6-week-old female C57BL/6J mice) was established as previously described ([46]). […] The mice infected in the same way were treated with physiological saline as an infection control group. The mock group was not infected with S. aureus, and the 7-day mortality of the mice in each group was calculated.

MSSA ATCC 29213 = test: Postantibiotic effect (viable plate count); format: cell-based, Staphylococcus aureus; details: 1 h exposure
Description: The postantibiotic effect (PAE) of WYBQ-4 against MSSA 29213 was determined in MHB agar using the viable plate count method ([39]). […] After incubation at 37°C for 1 h, WYBQ-4 was removed by centrifugation and washing with phosphate-buffered saline (PBS). Subsequently, fresh MHB medium was added to resuspend the bacteria, and the mixture was incubated at 37°C with shaking. The number of colonies was counted by taking 10 μL of bacteria at 1-h intervals and applying them to BHI agar plates after appropriate dilution. PAE duration was calculated as follows: time (h) for bacteria to return to log-phase growth after drug treatment – time (h) for the control group to return to log-phase growth ([40]).

Chain of PBP2a (Staphylococcus aureus, UniProt P07944) (P07944 whole entry): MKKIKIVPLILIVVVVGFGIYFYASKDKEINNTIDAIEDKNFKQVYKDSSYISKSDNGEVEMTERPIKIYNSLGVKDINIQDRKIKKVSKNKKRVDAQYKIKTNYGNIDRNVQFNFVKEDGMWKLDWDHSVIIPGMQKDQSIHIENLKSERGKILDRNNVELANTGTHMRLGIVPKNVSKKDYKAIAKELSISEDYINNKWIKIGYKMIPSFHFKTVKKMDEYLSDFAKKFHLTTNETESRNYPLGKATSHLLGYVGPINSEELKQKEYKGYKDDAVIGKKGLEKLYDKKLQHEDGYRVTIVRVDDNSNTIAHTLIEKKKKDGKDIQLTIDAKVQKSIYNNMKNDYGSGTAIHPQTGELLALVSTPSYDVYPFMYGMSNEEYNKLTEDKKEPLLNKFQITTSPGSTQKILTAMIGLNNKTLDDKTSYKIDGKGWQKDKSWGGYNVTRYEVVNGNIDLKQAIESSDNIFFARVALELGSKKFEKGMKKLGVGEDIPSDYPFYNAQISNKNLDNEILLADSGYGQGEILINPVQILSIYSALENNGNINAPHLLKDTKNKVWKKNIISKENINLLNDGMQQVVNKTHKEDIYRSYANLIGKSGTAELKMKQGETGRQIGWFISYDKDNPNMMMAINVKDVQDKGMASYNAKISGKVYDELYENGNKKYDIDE

In the case of `CCO/N=C(\C(=O)N[C@@H]1C(=O)N2C(C(=O)[O-])=C(Sc3nc(-c4cc[n+](C)cc4)cs3)CS[C@H]12)c1nsc(NP(=O)(O)O)n1` [ceftaroline fosamil, reference compound], the survival rate (MRSA USA300 [1]; 37.5 mg/kg subcutaneous) is reported as 26.67%, the survival rate (MRSA USA300 [1]; 75 mg/kg subcutaneous) is reported as 76.67% and the “Asymmetry of bacterial division (number of cells)” value (MRSA USA300 [2]) is reported as 41. For the same molecule, the “Distortion of septa (number of cells)” value (MRSA USA300 [2]) was 31, the “Percentage of defective cells (asymmetry of bacterial division)” value (MRSA USA300 [2]) was 46.1 C % and the “Percentage of defective cells (distortion of septa)” value (MRSA USA300 [2]) was 34.8 B %. The “Percentage of defective cells (thin cell walls)” value (MRSA USA300 [2]) was 71.9 C %, the “Thin cell walls (number of cells)” value (MRSA USA300 [2]) was 64 and the “inflammatory signs of lung tissue (H&E histopathology)” value (MRSA USA300 [3]) was “significantly reduced”.

For `CCO/N=C(\C(=O)N[C@@H]1C(=O)N2C(C(=O)[O-])=C(Sc3nc(-c4cc[n+](C)cc4)cs3)CS[C@H]12)c1nsc(N)n1` [Ceftaroline], the k2/ks (PBP2a [4]; PBP2a acylation) is listed as 4,500 ± 640 M^–1s^–1, the k2/ks (PBP2a [4]; PBP2a acylation, listed as ceftaroline) is listed as 4,500 M^–1s^–1 and the Kd (PBP2a [4]; PBP2a) is listed as 20 ± 4 µM. For the same molecule, the “Percentage of defective cells (thin cell walls)” value (MRSA USA300 [2]) was 71.9%.

For `O=C(Cc1cccs1)N[C@@H]1C(=O)N2C(C(=O)O)=C(/C=C/c3ccc([N+](=O)[O-])cc3[N+](=O)[O-])CS[C@H]12` [Nitrocefin], the k2 (PBP2a [4]; PBP2a) is given as 3.7 ± 0.3 s^–1 × 10^3, the k2/ks (PBP2a [4]; PBP2a) is given as 19.0 ± 3.0 M^–1s^–1 and the k3 (PBP2a [4]; PBP2a) is given as 7.2 ± 0.1 s^–1 × 10^6. The Kd (PBP2a [4]; PBP2a) was 192 ± 24 µM, the “primary reaction rate constant, kn*” value (PBP2a [5]; 100 μM nitrocefin, acylation of PBP2a) was “approximately 0.05 s^−1” and the “secondary rate constant, k0, for the nonspecific hydrolysis of nitrocefin” value (PBP2a [5]; in the presence of PBP2a) was 2.3 ± 0.14 M⁻¹ s⁻¹.

For `CC(C)(O/N=C(\C(=O)N[C@@H]1C(=O)N2C(C(=O)[O-])=C(C[n+]3ccccc3)CS[C@H]12)c1csc(N)n1)C(=O)O` [Ceftazidime], the k2 (PBP2a [4]; PBP2a) is listed as 1.0 ± 0.1 s^–1 × 10^3, the k2/ks (PBP2a [4]; PBP2a) is listed as 1.5 ± 0.3 M^–1s^–1 and the k3 (PBP2a [4]; PBP2a) is listed as 3.2 ± 0.2 s^–1 × 10^6. The Kd (PBP2a [4]; PBP2a) was 671 ± 116 µM.

In the case of `Cc1onc(-c2ccccc2)c1C(=O)N[C@@H]1C(=O)N2[C@@H]1SC(C)(C)[C@@H]2C(=O)O` [oxacillin], the “IC50 for PBP2a” value (PBP2a [6]) is listed as 408 ± 6 µg/mL.

For `CO/N=C(\C(=O)N[C@@H]1C(=O)N2C(C(=O)[O-])=C(C[N+]3(C)CCCC3)CS[C@H]12)c1csc(N)n1` [cefepime], the k2 (PBP2a [4]; PBP2a) is given as 1.5 ± 0.1 s^–1 × 10^3, the k2/ks (PBP2a [4]; PBP2a) is given as 0.9 ± 0.1 M^–1s^–1 and the k3 (PBP2a [4]; PBP2a) is given as 5.9 ± 0.5 s^–1 × 10^6. The survival rate (MRSA USA300 [7]) was 40%.

`CO[C@@]1(NC(=O)C(C(=O)O)c2ccc(O)cc2)C(=O)N2C(C(=O)O)=C(CSc3nnnn3C)CO[C@@H]21` (some centres unmarked) [moxalactam, reference compound] showed a PAE (MSSA ATCC 29213; 2× MIC) of 1 h, a PAE (MSSA ATCC 29213; 8× MIC) of 2.5 h and a survival rate (MRSA USA300 [7]) of 50%.

In the case of `CC1(C)S[C@@H]2[C@H](NC(=O)[C@H](N)c3ccccc3)C(=O)N2[C@H]1C(=O)O` [Ampicillin], the k2 (PBP2a [4]; PBP2a) is listed as 3.4 ± 0.1 s^–1 × 10^3, the k2/ks (PBP2a [4]; PBP2a) is listed as 5.0 ± 1.0 M^–1s^–1 and the k3 (PBP2a [4]; PBP2a) is listed as 3.2 ± 0.1 s^–1 × 10^6. The Kd (PBP2a [4]; PBP2a) was 668 ± 124 µM.
